This is an account of results in article PMC8582824, “Targeting DDX3X Helicase Activity with BA103 Shows Promising Therapeutic Effects in Preclinical Glioblastoma Models” (Cancers, 2021).

Values after ≈ are worked out from the molar mass of the structure shown. Bounds are passed on as bounds.

Data set [1] is described as follows: Parallel artificial membrane permeability assay (PAMPA). It counts as in vitro ADME. The conditions noted are these: for Papp at 5 h, 0.5 mM: pH 7.4, read-out: AppP (apparent permeability). The procedure:
(§1) Preliminary in vitro ADME analysis was performed to early evaluate the pharmacokinetic (PK) profile of our compounds (Figure 8). Aqueous solubility was calculated by LC-MS-MS analysis. An aliquot of 1 mg of compound was stirred for 24 h at 27 °C in 1 mL of water. The mixture was filtered, and the quantity of solubilized compound was determined. Passive permeability was determined using parallel artificial membrane permeability assay (PAMPA). Microsomal metabolic stability was determined by LC-UV-MS analysis by incubating compounds with human liver microsomes at 37 °C for 60 min (for details, see the Supporting Information).
Chemicals. All solvents, reagents, were from Sigma-Aldrich Srl (Milan, Italy). Dodecane was purchased from Fluka (Milan, Italy). Pooled Male Donors 20 mg mL-1 HLM were from BD Gentest-Biosciences (San Jose, California). Milli-Q quality water (Millipore, Milford, MA, USA) was used. Hydrophobic filter plates (MultiScreen-IP, Clear Plates, 0.45 μm diameter pore size), 96-well microplates, and 96-well UV-transparent microplates were obtained from Millipore (Bedford, MA, USA). […]
Parallel Artificial Membrane Permeability Assay (PAMPA):
Donor solution (0.5 mM) was prepared by diluting 1 mM dimethylsulfoxide (DMSO) compound stock solution using phosphate buffer (pH 7.4, 0.025 M). Filters were coated with 5 μL of a 1% (w/v) dodecane solution of phosphatidylcholine prepared from CHCl3 solution 10% w/v, for intestinal permeability. Donor solution (150 μL) was added to each well of the filter plate. To each well of the acceptor plate were added 300 μL of solution (50% DMSO in phosphate buffer). All compounds were tested in three different plates on different days. The sandwich was incubated for 5 h at room temperature under gentle shaking. After the incubation time, the plates were separated, and samples were taken from both receiver and donor sides and analyzed using LC with UV detection at 280 nm.
LC analysis were performed with a Varian Prostar HPLC system (Varian Analytical Instruments, USA) equipped with a binary pump with a manual injection valve and model Prostar 325 UV-VIS Detector.
Chromatographic separation were conducted using a Polaris C18-A column (150-4.6 mm, 5 μm particle size) at a flow rate of 0.8 mL min-1 with a mobile phase composed of 60% ACN/40% H2O.
Permeability (Papp) for PAMPA was calculated according to the following equation, obtained from Wohnsland and Faller and Sugano et al. equation with some modification in order to obtain permeability […]
where VA is the volume in the acceptor well, VD is the volume in the donor well (cm3), A is the “effective area” of the membrane (cm2), t is the incubation time (s) and r the ratio between drug concentration in the acceptor and equilibrium concentration of the drug in the total volume (VD+VA). Drug concentration is estimated by using the peak area integration.
Membrane retentions (%) were calculated according to the following equation: […]
where r is the ratio between drug concentration in the acceptor and equilibrium concentration, D, A, and Eq represented drug concentration in the donor, acceptor and equilibrium solution, respectively. […]
15 min. The flow rate was 0.2 mL min-1 and injection volume was 5 μL. The instrument operated in positive mode and parameters were: detector 1850 V, drying gas pressure 25.0 psi, desolvation temperature 300.0 °C, nebulizing gas 40.0 psi, needle 5000 V and shield 600 V. Nitrogen was used as nebulizer gas and drying gas.
Collision induced dissociation was performed using Argon as the collision gas at a pressure of 1.8 mTorr in […]
Microsomal Stability Assay.
Each compound in DMSO solution was incubated at 37 °C for 60 min in 125 mM phosphate buffer (pH 7.4), 5 μL of human liver microsomal protein (0.2 mg mL-1), in the presence of a NADPH-generating system at a final […]
reaction was stopped by cooling on ice and adding 1.0 mL of acetonitrile. The reaction mixtures were then centrifuged, and the parent drug and metabolites were subsequently determined by LC-UV-MS. […]

Another data set in a line: Water solubility assay. The note with it: 27 °C, thermodynamic from solid, read-out: LogS (aqueous solubility) (converted). It counts as physicochemical. The procedure:
as §1, with “Information). […]” for “Information).”
Each solid compound (1 mg) was added to 1 mL of water. The samples were shaked in a shaker bath at room temperature for 24-36 h. The suspensions were filtered through a 0.45 μm nylon filter (Acrodisc), and the solubilized compound determined by LC-MS-MS assay. For each compound the determination was […]
For the quantification was used an LC-MS system consisted of a Varian apparatus (Varian Inc) including a vacuum solvent degassing unit, two pumps (212-LC), a Triple Quadrupole MSD (Mod. 320-LC) mass spectrometer with ES interface and Varian MS Workstation System Control Vers. 6.9 software.
Chromatographic separation was obtained using a Pursuit C18 column (50 x 2.0 mm) (Varian) with 3 μm particle size and gradient elution: eluent A being ACN and eluent B consisting of water. […] The flow rate was 0.2 mL min-1 and injection volume was 5 μL. The instrument operated in positive mode and parameters were: detector 1850 V, drying gas pressure 25.0 psi, desolvation temperature 300.0 °C, nebulizing gas 40.0 psi, needle 5000 V and shield 600 V. Nitrogen was used as nebulizer gas and drying gas. […]
Chromatographic analysis was performed with an Agilent 1100 LC/MSD VL system (G1946C) (Agilent Technologies, Palo Alto, CA) constituted by a vacuum solvent degassing unit, a binary high-pressure gradient pump, an 1100 series UV detector, and an 1100 MSD model VL benchtop mass spectrometer.
Chromatographic separation was obtained using a Varian Polaris C18-A column (150-4.6 mm, 5 μm particle size) and gradient elution: eluent A being ACN and eluent B consisting of water. The analysis started with 2% […]
flow rate was 0.8 mL min-1 and injection volume was 20 μL.
The Agilent 1100 series mass spectra detection (MSD) single-quadrupole instrument was equipped with the orthogonal spray API-ES (Agilent Technologies, Palo Alto, CA). Nitrogen was used as nebulizing and drying gas. The pressure of the nebulizing gas, the flow of the drying gas, the capillary voltage, the fragmentor voltage, and the vaporization temperature were set at 40 psi, 9 L/min, 3000 V, 70 V, and 350 °C, respectively. […]
Spectra were acquired over the scan range m/z 100-1500 using a step size of 0.1 u. […]

For the compound `CCCCc1cn(-c2ccc(NC(=O)Nc3ccccc3C(F)(F)F)cc2)nn1` [BA103, 1-(4-(4-Butyl-1H-1,2,3-triazol-1-yl)phenyl)-3-(2-(trifluoromethyl)phenyl)urea], in data set [1], the “AppP (apparent permeability)” value is reported as “good values of passive permeability”; the “Memb. Ret. % (membrane retention)” value amounted to 23.9%; the Papp at 5 h, 0.5 mM came to 74.7 nm/s.
Take `CCCCc1cn(-c2ccc(NC(=O)Nc3ccccc3C)cc2)nn1` [Compound 1, reference compound]: in data set [1], the “AppP (apparent permeability)” value turned out to be 28.6 nm/s and the “Memb. Ret. % (membrane retention)” value was 19.1%.
Take `CCCCc1nnc(-c2ccc(NC(=O)Nc3ccccc3C(F)(F)F)cc2)o1` [Compound 3, 1-(4-(5-Butyl-1,3,4-oxadiazol-2-yl)phenyl)-3-(2-(trifluoromethyl)phenyl)urea]: in data set [1], the “AppP (apparent permeability)” value is given as “good values of passive permeability”; the “Memb. Ret. % (membrane retention)” value is 10.3%; the Papp at 5 h, 0.5 mM came to 97.5 nm/s. In addition, the solubility – broadly, how much of the substance goes into solution per volume – at 24 h in “Water solubility assay” was below 0.0251 µM.
The like results for `CCCCc1nnc(-c2ccc(NC(=O)Nc3ccccc3C(F)(F)F)cc2)[nH]1` [Compound 4, 1-(4-(5-Butyl-4H-1,2,4-triazol-3-yl)phenyl)-3-(2-(trifluoromethyl)phenyl)urea] were, in that order, “very low passive permeability”, 2.3%, below 1 nm/s and 0.275 µM (≈ 0.111 µg/mL).
The like results for `CCCCn1nnc(-c2ccc(NC(=O)Nc3ccccc3C(F)(F)F)cc2)n1` [Compound 6, 1-(4-(2-Butyl-2H-tetrazol-5-yl)phenyl)-3-(2-(trifluoromethyl)phenyl)urea] were, in that order, “good values of passive permeability”, 21.6%, 102 nm/s and below 0.0251 µM.
In the case of `CC(C)CCc1cn(-c2ccc(NC(=O)Nc3cccc4cnccc34)cn2)nn1` [Compound 10, 1-(6-(4-Isopentyl-1H-1,2,3-triazol-1-yl)pyridin-3-yl)-3-(isoquinolin-5-yl)urea], in data set [1], the “Memb. Ret. % (membrane retention)” value was 11.3% and the Papp at 5 h, 0.5 mM came to 12.1 nm/s. In addition, the solubility at 24 h in the data set “Water solubility assay” is below 0.0363 µM.
